The target in the test is IDO1 (Homo sapiens, UniProt P14902). The experiment in a line: IDO1 Cellular Assay in HeLa Cells Stimulated with IFNγ. Format: cell-based. Conditions: read-out: HeLa Cell Potency, IC50.
IDO1, sequence (P14902 whole entry): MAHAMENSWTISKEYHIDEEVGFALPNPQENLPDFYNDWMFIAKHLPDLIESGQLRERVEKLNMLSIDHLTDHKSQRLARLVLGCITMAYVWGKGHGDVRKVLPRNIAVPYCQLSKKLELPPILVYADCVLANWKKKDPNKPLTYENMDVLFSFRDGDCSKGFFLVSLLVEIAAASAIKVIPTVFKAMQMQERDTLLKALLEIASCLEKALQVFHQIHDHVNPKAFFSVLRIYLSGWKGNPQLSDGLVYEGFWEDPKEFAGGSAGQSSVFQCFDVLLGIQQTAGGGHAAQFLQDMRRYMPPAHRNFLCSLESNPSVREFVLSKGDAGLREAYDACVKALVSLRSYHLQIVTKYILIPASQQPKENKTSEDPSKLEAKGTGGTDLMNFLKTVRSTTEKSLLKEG
Consider `Cc1cccc(N2CCN(C(=O)Cn3nc(C(=O)N4CCC5(CC4)COC(CO)C5)c4c3C[C@H]3C[C@@H]43)CC2)c1C` (stereo partly drawn) [Example 268, 1-[4-(2,3-dimethylphenyl)piperazin-1-yl]-2-{(3bR,4aR)-3-[3-(hydroxymethyl)-2-oxa-8-azaspiro[4.5]decane-8-carbonyl]-3b,4,4a,5-tetrahydro-1H-cyclopropa[3,4]cyclopenta[1,2-c]pyrazol-1-yl}ethan-1-one], for which the IC50 stood at 1.25 nM. Take `Cc1cccc(N2CCN(C(=O)Cn3nc(C(=O)N4CCS(=N)(=O)CC4)c4c3C[C@H]3C[C@@H]43)CC2)c1C` [Example 269, 4-[(3bR,4aR)-1-{2-[4-(2,3-dimethylphenyl)piperazin-1-yl]-2-oxoethyl}-3b,4,4a,5-tetrahydro-1H-cyclopropa[3,4]cyclopenta[1,2-c]pyrazole-3-carbonyl]-1-imino-1lambda~6~,4-thiazinan-1-one]: the IC50 stood at 38.6 nM. Regarding `Cc1cccc(N2CCN(C(=O)Cn3nc(C(=O)N4CC5CCC(C4)N5C)c4c3C[C@H]3C[C@@H]43)CC2)c1C` [Example 270, 1-[4-(2,3-dimethylphenyl)piperazin-1-yl]-2-[(3bR,4aR)-3-(8-methyl-3,8-diazabicyclo[3.2.1]octane-3-carbonyl)-3b,4,4a,5-tetrahydro-1H-cyclopropa[3,4]cyclopenta[1,2-c]pyrazol-1-yl]ethan-1-one], the IC50 came to 5.75 nM. With `Cc1cccc(N2CCN(C(=O)Cn3nc(C(=O)N4CCCCC4C(C)(C)O)c4c3C[C@H]3C[C@@H]43)CC2)c1C` (stereo partly drawn) [Example 271, 1-[4-(2,3-dimethylphenyl)piperazin-1-yl]-2-{(3bR,4aR)-3-[2-(2-hydroxypropan-2-yl)piperidine-1-carbonyl]-3b,4,4a,5-tetrahydro-1H-cyclopropa[3,4]cyclopenta[1,2-c]pyrazol-1-yl}ethan-1-one], the IC50 amounted to 3.66 nM.

`Cc1cccc(N2CCN(C(=O)Cn3nc(C(=O)N4CCCC(NC(N)=O)C4)c4c3C[C@H]3C[C@@H]43)CC2)c1C` (stereo partly drawn) [Example 272, N-{1-[(3bR,4aR)-1-{2-[4-(2,3-dimethylphenyl)piperazin-1-yl]-2-oxoethyl}-3b,4,4a,5-tetrahydro-1H-cyclopropa[3,4]cyclopenta[1,2-c]pyrazole-3-carbonyl]piperidin-3-yl}urea]: the IC50 came to 16.3 nM. The value for `Cc1cccc(N2CCN(C(=O)Cn3nc(C(=O)N4CCC5C(C4)NC(=O)N5C)c4c3C[C@H]3C[C@@H]43)CC2)c1C` (stereo partly drawn) [Example 273, 5-[(3bR,4aR)-1-{2-[4-(2,3-dimethylphenyl)piperazin-1-yl]-2-oxoethyl}-3b,4,4a,5-tetrahydro-1H-cyclopropa[3,4]cyclopenta[1,2-c]pyrazole-3-carbonyl]-1-methyloctahydro-2H-imidazo[4,5-c]pyridin-2-one] was 38.7 nM; that for `Cc1cccc(N2CCN(C(=O)Cn3nc(C(=O)N4CCOCC4CO)c4c3C[C@H]3C[C@@H]43)CC2)c1C` (stereo partly drawn) [Example 274, 1-[4-(2,3-dimethylphenyl)piperazin-1-yl]-2-{(3bR,4aR)-3-[3-(hydroxymethyl)morpholine-4-carbonyl]-3b,4,4a,5-tetrahydro-1H-cyclopropa[3,4]cyclopenta[1,2-c]pyrazol-1-yl}ethan-1-one] was 6.37 nM; that for `Cc1cccc(N2CCN(C(=O)Cn3nc(C(=O)N4CCC5(CC4)COC(CO)C5)c4c3C[C@H]3C[C@@H]43)CC2)c1C` (stereo partly drawn) [Example 275, 1-[4-(2,3-dimethylphenyl)piperazin-1-yl]-2-{(3bR,4aR)-3-[3-(hydroxymethyl)-2-oxa-8-azaspiro[4.5]decane-8-carbonyl]-3b,4,4a,5-tetrahydro-1H-cyclopropa[3,4]cyclopenta[1,2-c]pyrazol-1-yl}ethan-1-one] was 0.8 nM. With `Cc1cccc(N2CCN(C(=O)Cn3nc(C(=O)N4CCC(OCCO)CC4)c4c3C[C@H]3C[C@@H]43)CC2)c1C` [Example 277, 1-[4-(2,3-dimethylphenyl)piperazin-1-yl]-2-{(3bR,4aR)-3-[4-(2-hydroxyethoxy)piperidine-1-carbonyl]-3b,4,4a,5-tetrahydro-1H-cyclopropa[3,4]cyclopenta[1,2-c]pyrazol-1-yl}ethan-1-one], the IC50 was under 0.51 nM. Take `Cc1cccc(N2CCN(C(=O)Cn3nc(C(=O)N4CC[C@H](O)[C@@H](C)C4)c4c3C[C@H]3C[C@@H]43)CC2)c1C` [Example 282, 1-[4-(2,3-dimethylphenyl)piperazin-1-yl]-2-{(3bR,4aR)-3-[(3S,4S)-4-hydroxy-3-methylpiperidine-1-carbonyl]-3b,4,4a,5-tetrahydro-1H-cyclopropa[3,4]cyclopenta[1,2-c]pyrazol-1-yl}ethan-1-one]: the IC50 worked out at 0.97 nM. For the molecule `Cc1cccc(N2CCN(C(=O)Cn3nc(C(=O)N4CCN(C(=O)CO)CC4)c4c3CC3CC43)CC2)c1C` (centres unmarked) [Example 287, 1-[4-(2,3-dimethylphenyl)piperazin-1-yl]-2-{3-[4-(hydroxyacetyl)piperazine-1-carbonyl]-3b,4,4a,5-tetrahydro-1H-cyclopropa[3,4]cyclopenta[1,2-c]pyrazol-1-yl}ethan-1-one], the IC50 stood at 1.64 nM. Consider `Cc1cccc(N2CCN(C(=O)Cn3nc(C(=O)N4C[C@H](O)C[C@H]4C)c4c3C[C@H]3C[C@@H]43)CC2)c1C` [Example 292, 1-[4-(2,3-dimethylphenyl)piperazin-1-yl]-2-{(3bR,4aR)-3-[(2R,4R)-4-hydroxy-2-methylpyrrolidine-1-carbonyl]-3b,4,4a,5-tetrahydro-1H-cyclopropa[3,4]cyclopenta[1,2-c]pyrazol-1-yl}ethan-1-one], for which the half-maximal inhibitory concentration (IC50) was 3.7 nM. Turning to `Cc1cccc(N2CCN(C(=O)Cn3nc(C(=O)N4C[C@@H](C)O[C@@H](C)C4)c4c3CC[C@@H](C(F)(F)F)C4)CC2)c1C` [Example 295, 2-[(5R)-3-[(2R,6S)-2,6-dimethylmorpholine-4-carbonyl]-5-(trifluoromethyl)-4,5,6,7-tetrahydro-1H-indazol-1-yl]-1-[4-(2,3-dimethylphenyl)piperazin-1-yl]ethan-1-one], the IC50 is 6.69 nM. On to `Cc1cccc(N2CCN(C(=O)Cn3nc(C(=O)N4CC[C@@H](O)[C@@H](F)C4)c4c3C[C@@H]3C[C@H]43)CC2)c1C` [Example 298, 1-[4-(2,3-dimethylphenyl)piperazin-1-yl]-2-{(3bS,4aS)-3-[(3S,4R)-3-fluoro-4-hydroxypiperidine-1-carbonyl]-3b,4,4a,5-tetrahydro-1H-cyclopropa[3,4]cyclopenta[1,2-c]pyrazol-1-yl}ethan-1-one], for which the IC50 is 14.3 nM. In the case of `Cc1cccc(N2CCN(C(=O)Cn3nc(C(=O)N4C[C@@H](C)O[C@@H](C)C4)c4c3C[C@@H]3C[C@H]43)CC2)c1C` [Example 299, 2-{(3bS,4aS)-3-[(2R,6S)-2,6-dimethylmorpholine-4-carbonyl]-3b,4,4a,5-tetrahydro-1H-cyclopropa[3,4]cyclopenta[1,2-c]pyrazol-1-yl}-1-[4-(2,3-dimethylphenyl)piperazin-1-yl]ethan-1-one], the half-maximal inhibitory concentration (IC50) turned out to be 15.1 nM. Turning to `Cc1cccc(N2CCN(C(=O)Cn3nc(C(=O)N4CCC(F)(CO)C4)c4c3CCC4)CC2)c1C` (centres unmarked) [Example 300, 1-[4-(2,3-dimethylphenyl)piperazin-1-yl]-2-{3-[3-fluoro-3-(hydroxymethyl)pyrrolidine-1-carbonyl]-5,6-dihydrocyclopenta[c]pyrazol-1(4H)-yl}ethan-1-one], the 50% inhibitory concentration (IC50) is 16.9 nM. Turning to `Cc1cccc(N2CCN(C(=O)Cn3nc(C(=O)N4CC5(CO)CC4C5)c4c3CCC4)CC2)c1C` [Example 301, 1-[4-(2,3-dimethylphenyl)piperazin-1-yl]-2-{3-[4-(hydroxymethyl)-2-azabicyclo[2.1.1]hexane-2-carbonyl]-5,6-dihydrocyclopenta[c]pyrazol-1(4H)-yl}ethan-1-one], the IC50 was found to be 17.1 nM.

For `Cc1cccc(N2CCN(C(=O)Cn3nc(C(=O)N4C[C@@H](C)O[C@@H](C)C4)c4c3CC[C@H](C(F)(F)F)C4)CC2)c1C` [Example 302, 2-[(5S)-3-[(2R,6S)-2,6-dimethylmorpholine-4-carbonyl]-5-(trifluoromethyl)-4,5,6,7-tetrahydro-1H-indazol-1-yl]-1-[4-(2,3-dimethylphenyl)piperazin-1-yl]ethan-1-one], the concentration for half-maximal inhibition (IC50) is 24.9 nM. With `Cc1cccc(N2CCN(C(=O)Cn3nc(C(=O)N4C[C@@H](C)O[C@@H](C)C4)c4c3CCC(C(F)(F)F)C4)CC2)c1C` (stereo partly drawn) [Example 303, 2-{3-[(2R,6S)-2,6-dimethylmorpholine-4-carbonyl]-5-(trifluoromethyl)-4,5,6,7-tetrahydro-1H-indazol-1-yl}-1-[4-(2,3-dimethylphenyl)piperazin-1-yl]ethan-1-one], the IC50 is 29.9 nM. For `Cc1cccc(N2CCN(C(=O)Cn3nc(C(=O)N4CC[C@@H](O)[C@@H](F)C4)c4c3CCC3(C4)CC3(F)F)CC2)c1C` (stereo partly drawn) [Example 304, 2-{2,2-difluoro-3′-[(3S,4R)-3-fluoro-4-hydroxypiperidine-1-carbonyl]-6′,7′-dihydrospiro[cyclopropane-1,5-indazol]-1′(′4H)-yl}-1-[4-(2,3-dimethylphenyl)piperazin-1-yl]ethan-1-one], the IC50 was found to be 30.2 nM.

Turning to `Cc1cccc(N2CCN(C(=O)Cn3nc(C(=O)N4CC5(CC(O)C5)C4)c4c3CCC4)CC2)c1C` [Example 305, 1-[4-(2,3-dimethylphenyl)piperazin-1-yl]-2-[3-(6-hydroxy-2-azaspiro[3.3]heptane-2-carbonyl)-5,6-dihydrocyclopenta[c]pyrazol-1(4H)-yl]ethan-1-one], the concentration for half-maximal inhibition (IC50) turned out to be 48 nM.

With `Cc1cccc(N2CCN(C(=O)Cn3nc(C(=O)N4CC5CC(C4)C5O)c4c3CCC4)CC2)c1C` (centres unmarked) [Example 306, 1-[4-(2,3-dimethylphenyl)piperazin-1-yl]-2-[3-(6-hydroxy-3-azabicyclo[3.1.1]heptane-3-carbonyl)-5,6-dihydrocyclopenta[c]pyrazol-1(4H)-yl]ethan-1-one], the IC50 stood at 55.4 nM.

On to `Cc1cccc(N2CCN(C(=O)Cn3nc(C(=O)N4CC[C@H](O)[C@H](F)C4)c4c3C[C@@H]3C[C@H]43)CC2)c1C` [Example 307, 1-[4-(2,3-dimethylphenyl)piperazin-1-yl]-2-{(3bS,4aS)-3-[(3R,4S)-3-fluoro-4-hydroxypiperidine-1-carbonyl]-3b,4,4a,5-tetrahydro-1H-cyclopropa[3,4]cyclopenta[1,2-c]pyrazol-1-yl}ethan-1-one], for which the half-maximal inhibitory concentration (IC50) was found to be 71.4 nM.

These data come from patent US12264134B2 (Merck Sharp & Dohme LLC, priority 2018, dated 2025).
